Values of other authors, collected in US6461848B1, “Human heparanase polypeptide and cDNA” (Novartis AG, priority 1998, dated 2002).
One block for each molecule: values may come before it.

Tests used:
[1] = target: T1, heparanase (Mus musculus, UniProt Q6YGZ1)
T1 sequence (Q6YGZ1 28-535): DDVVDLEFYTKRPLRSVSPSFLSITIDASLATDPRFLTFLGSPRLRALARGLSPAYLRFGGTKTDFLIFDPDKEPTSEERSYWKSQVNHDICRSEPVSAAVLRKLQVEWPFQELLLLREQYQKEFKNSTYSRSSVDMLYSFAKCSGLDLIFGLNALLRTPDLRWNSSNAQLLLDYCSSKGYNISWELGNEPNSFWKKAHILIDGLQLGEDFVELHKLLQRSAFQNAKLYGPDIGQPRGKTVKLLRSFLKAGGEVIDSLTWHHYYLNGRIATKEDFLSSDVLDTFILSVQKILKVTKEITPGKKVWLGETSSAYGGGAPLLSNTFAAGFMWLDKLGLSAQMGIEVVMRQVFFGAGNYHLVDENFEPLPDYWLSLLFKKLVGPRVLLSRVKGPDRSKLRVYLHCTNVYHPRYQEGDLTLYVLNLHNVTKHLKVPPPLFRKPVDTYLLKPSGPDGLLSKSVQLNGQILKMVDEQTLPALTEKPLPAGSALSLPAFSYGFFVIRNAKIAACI

[2] = target: T2, heparanase (Homo sapiens, UniProt Q9Y251)
T2 sequence (Q9Y251 36-543): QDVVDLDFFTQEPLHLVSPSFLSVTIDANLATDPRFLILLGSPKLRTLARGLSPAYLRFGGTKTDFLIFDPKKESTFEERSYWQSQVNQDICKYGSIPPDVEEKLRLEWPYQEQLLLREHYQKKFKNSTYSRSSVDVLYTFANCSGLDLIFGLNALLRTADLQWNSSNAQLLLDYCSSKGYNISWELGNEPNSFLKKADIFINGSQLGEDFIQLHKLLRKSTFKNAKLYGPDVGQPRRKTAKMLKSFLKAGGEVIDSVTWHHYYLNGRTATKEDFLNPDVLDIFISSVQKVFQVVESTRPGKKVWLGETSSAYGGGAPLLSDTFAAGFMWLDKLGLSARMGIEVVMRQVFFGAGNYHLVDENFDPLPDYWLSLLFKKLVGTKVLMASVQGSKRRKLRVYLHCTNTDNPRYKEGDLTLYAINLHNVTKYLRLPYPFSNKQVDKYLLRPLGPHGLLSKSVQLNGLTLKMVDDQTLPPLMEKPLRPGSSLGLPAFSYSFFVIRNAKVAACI

[3] = system: B16-F10 melanoma; conditions: C57BL/6N mice, B16-F10 experimental lung metastasis
[4] = system: human pancreatic (Ca-Pan-2) adenocarcinoma; conditions: subcutaneous Ca-Pan-2 adenocarcinoma, nude mice
[5] = system: murin melanoma
[6] = target: T3, murin melanoma heparanase (Mus musculus, UniProt Q6YGZ1)
T3 construct: host or cells: murine melanoma
T3 sequence (Q6YGZ1 28-535): T1 sequence (Q6YGZ1 28-535)

inhibition of heparanase [1]: inhibited
Molecule: heparin

Molecule: 2,3-O-desulfated heparin
inhibition of heparanase activity [2]: inhibit | survival times [3]: prolonged | inhibition of tumor growth [4]: inhibit

inhibition of murin melanoma heparanase [6]: strongly inhibit
Molecule: Cc1ccc(C(=O)Nc2ccc(S(=O)(=O)O)c3cc(S(=O)(=O)O)cc(S(=O)(=O)O)c23)cc1NC(=O)c1cccc(NC(=O)Nc2cccc(C(=O)Nc3cc(C(=O)Nc4ccc(S(=O)(=O)O)c5cc(S(=O)(=O)O)cc(S(=O)(=O)O)c45)ccc3C)c2)c1 [Suramin]
inhibition of melanoma invasion [5]: strongly inhibit

inhibition of heparanase [1]: not
Molecule: O=C(O)[C@@H](O)[C@H]1OC(=O)[C@H](O)[C@H]1O [1,4-saccharolactone]
